Consider 12 molecules from patent US20260152527A1, “NOVEL MELANOCORTIN ANALOGS” (priority 2022, published 2026).

Values after ≈ are worked out from the molar mass of the structure shown. Like-named read-outs stand apart in the source and are kept apart here. Positions of bridges follow the written chain, without caps; N, C: chain ends. Non-standard residues stand in square brackets, D forms with d. Residues, ends and D or L forms follow the SMILES beside them. Triazole bridges read from a SMILES are 1,4-linked. *: point of attachment. dPhe(4-CF3) = N[C@H](Cc1ccc(C(F)(F)F)cc1)C(=O)O; Benzoyl(3,5-(OH)2) = O=C(c1cc(O)cc(O)c1)*; Lys(N3) = [N-]=[N+]=NCCCC[C@H](N)C(=O)O; dPhe(4-F) = N[C@H](Cc1ccc(F)cc1)C(=O)O; NMeH = CN[C@@H](Cc1c[nH]cn1)C(=O)O; NMeR = CN[C@@H](CCCNC(=N)N)C(=O)O; dNMeF = CN[C@H](Cc1ccccc1)C(=O)O; Aad = N[C@@H](CCCC(=O)O)C(=O)O; Nle = CCCC[C@H](N)C(=O)O; Pra = C#CC[C@H](N)C(=O)O A value given as a limit tells only on which side of the number the result lay.

The conditions of data set [1]: rabbit.
From the text: (§1) To evaluate the effects of the peptide formulations following topical administration and subconjunctival injection a study in rabbits was undertaken. Animals were acclimated to the study and, upon completion of the acclimation period, each animal was physically examined for determination of suitability for study participation. Animals determined to be in good health were randomized into study groups to achieve averaged mean body weight in each group. (N=24; 3 animals per study group) Animals will be uniquely identified by corresponding cage card number and ear tag.
(§2) For topical ocular dosing the designated peptide formulations (35 L) were administered to the eye of each animal using a calibrated pipette. With the animal manually restrained, the upper eyelid of the eye was gently elevated to expose the cornea. Treatment was then be applied to the cornea without contacting the eye with the pipette tip. One topical drop was applied per eye for four days. Tissue collection (aqueous humor) occurred 30 minutes after last dose.
(§3) A veterinary ophthalmologist performed complete ocular examinations using a slit lamp biomicroscope and indirect ophthalmoscope to evaluate ocular surface morphology and anterior and posterior segment inflammation on all animals prior to injection to serve as a baseline for enrollment into the study as well as on specific study days. Animals were not tranquilized for the examinations.
(§4) At least 1.0 mL of whole blood was drawn from the marginal ear vein or cardiac puncture (terminal bleed only) into K2EDTA tubes for plasma collection. After collection, the tubes were gently mixed by inverting the tubes 5-8 times. Blood samples were stored on wet ice prior to plasma processing. The samples were centrifuged at 4° C. for 10 minutes at 2000 g in a swinging bucket refrigerated centrifuge. Within 20 minutes of the blood collection time, the clear plasma was transferred to prelabelled polypropylene tubes, snap frozen, and stored frozen at approximately −80° C.
(§5) Following euthanasia, eyes were enucleated and marked at the 12:00 position. Aqueous humor was removed via a 27 or 30 gauge syringe following a 10-15 second rinse with PBS and blot with Kimwipe, and snap frozen by immersing in liquid nitrogen. The whole globe was then snap frozen in liquid nitrogen and stored at −80° C. to be held for potential dissection. All samples were placed into individual vials and weighed. The plasma and aqueous humor were collected.
(§6) The peptides were evaluated for their ocular tolerability and pharmacokinetics following repeated (QID×4 days) topical instillation or a single subconjunctival injection in rabbits. The study examined penetration into the anterior chamber and concentrations in the plasma by measuring at a single time point.
Data set [2] in a line: Thermodynamic solubility study in water. The data set is classed as physicochemical. The method, then: The study was conducted in water. Water was added into compound powder to make a 10 mg/mL solution. Sample tubes were shaken at the vibrator for 1 hour (1000 rpm) and then equilibrated overnight at room temperature. Samples were centrifuged at 12000 rpm for 10 min to precipitate undissolved particles. Supernatants were transferred from tubes to a new plate. An aliquot of the supernatant after centrifugation was taken from each well, then analyzed by LC-MS/MS. The concentration of the supernatants was quantified by a standard curve.

Data set [3] deals with T1, human recombinant MC4R (Homo sapiens, UniProt P32245).
T1 construct: host or cells: CHO-K1/Gα15
T1 sequence (P32245 whole entry): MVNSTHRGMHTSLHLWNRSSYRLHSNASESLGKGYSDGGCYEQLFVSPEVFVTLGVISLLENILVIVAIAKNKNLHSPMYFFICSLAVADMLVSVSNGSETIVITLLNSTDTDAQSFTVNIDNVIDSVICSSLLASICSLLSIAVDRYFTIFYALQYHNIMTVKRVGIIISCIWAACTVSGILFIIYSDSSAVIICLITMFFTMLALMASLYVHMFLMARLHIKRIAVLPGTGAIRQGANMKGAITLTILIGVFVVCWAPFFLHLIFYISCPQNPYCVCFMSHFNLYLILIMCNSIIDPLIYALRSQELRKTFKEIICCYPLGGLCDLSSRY
As to the kind of experiment: Ca2+ signalling functional assay, MC4R stable cell line (CHO-K1/Gα15). It is filed as cell-based. The settings on record: for IC50: calcium flux functional assay.
Method: The Ca^2+ signalling functional assay was performed on a human recombinant MC4R stable cell line (CHO-K1/Gα15, GenScript). The cells were cultured at 37° C. and 5% CO2 with culture medium (90% Ham's F-12K (Kaighn's)+10% FBS+8 μg/mL Puromycin+100 μg/mL Hygromycin B). Cells were washed with PBS and then detached by incubation with 0.05% (w/v) Trypsin EDTA at 37° C. for 2-5 mins. Detached cells were suspended in Ham's F-12K (Kaighn's) (containing 10% FBS) and a 50 μL cell suspension was seeded into each well of a 384-well assay plate at a density of 15,000 cells/well. Cells were allowed to settle overnight at 37° C., 5% CO2. The next day, the assay plate was centrifuged and the media was replaced with dye (1×) in assay buffer (containing HBSS, HEPES 20 mM and probenecid 1 mM) and incubated for 1 h at 37° C. […] Then, 100 nL of compounds were transferred to the compound plate by the Echo machine. 30 μL assay buffer was added to the compounds plate and then shaken for 20 to 40 minutes. The plates were placed on the FLIPR and 15 μL of the compound was added to each well, then calcium flux signal was measured.

For data set [4], the target named is T2, human recombinant MC5R (Homo sapiens, UniProt P33032).
T2 construct: host or cells: CHO-K1/Ga15
T2 sequence (P33032 whole entry): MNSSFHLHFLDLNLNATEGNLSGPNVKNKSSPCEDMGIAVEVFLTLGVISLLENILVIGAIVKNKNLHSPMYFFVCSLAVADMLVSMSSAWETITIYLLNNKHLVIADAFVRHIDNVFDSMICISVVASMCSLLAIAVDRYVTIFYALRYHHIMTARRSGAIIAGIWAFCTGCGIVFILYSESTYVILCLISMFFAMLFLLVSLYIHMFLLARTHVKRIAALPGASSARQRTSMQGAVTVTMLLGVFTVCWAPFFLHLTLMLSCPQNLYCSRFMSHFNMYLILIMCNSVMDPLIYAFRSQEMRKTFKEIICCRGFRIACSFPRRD
Nature of the data set: Ca2+ signalling functional assay, MC5R stable cell line (CHO-K1/Ga15). It is filed as cell-based.
Method: The Ca^2+ signalling functional assay was performed on a human recombinant MC5R stable cell line (CHO-K1/Ga15, GenScript). The cells were cultured at 37° C. and 5% C02 with culture medium (90% Ham's F-12K (Kaighn's)+10% FBS+400 μg/mL G418+100 μg/mL Hygromycin B). Cells were washed with PBS and then detached by incubation with 0.05% (w/v) Trypsin EDTA at 37° C. for 2 to 5 mins. Detached cells were suspended in Ham's F-12K (Kaighn's) (containing 10% FBS) and a 50 μL cell suspension is seeded into each well of a 384-well assay plate at a density of 15,000 cells/well. Cells were allowed to settle overnight at 37° C., 5% CO2. […] Then, 100 nL of compounds were transferred to the compound plate by the Echo machine. Thirty microliter assay buffer was added to the compounds plate and then shaken for 20-40 minutes. The plates were placed on the FLIPR and 15 μL of the compound was added to each well, then calcium flux signal was measured.

In data set [5] the target is T3, human recombinant MC3R (Homo sapiens, UniProt P41968).
T3 construct: host or cells: CHO-K1/Gα15
T3 sequence (P41968 whole entry): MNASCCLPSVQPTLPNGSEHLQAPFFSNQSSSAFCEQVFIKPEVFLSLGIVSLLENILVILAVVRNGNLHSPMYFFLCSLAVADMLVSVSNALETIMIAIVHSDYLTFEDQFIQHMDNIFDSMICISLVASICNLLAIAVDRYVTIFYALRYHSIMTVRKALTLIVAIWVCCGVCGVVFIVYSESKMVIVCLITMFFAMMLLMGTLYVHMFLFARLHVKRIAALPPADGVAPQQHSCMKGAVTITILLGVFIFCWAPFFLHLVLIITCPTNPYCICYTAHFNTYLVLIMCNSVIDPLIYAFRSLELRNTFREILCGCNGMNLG
Nature of the data set: Ca2+ signalling functional assay, MC3R stable cell line (CHO-K1/Gα15). It is filed as cell-based. To be noted: calcium flux functional assay.
Method: The Ca^2+ signalling functional assay was performed on a human recombinant MC3R stable cell line (CHO-K1/Gα15, GenScript). The cells were cultured at 37° C. and 5% CO2 with culture medium (90% Ham's F-12K (Kaighn's)+10% FBS+200 μg/mL Zeocin+100 μg/mL Hygromycin B). Cells were washed with PBS and then detached by incubation with 0.05% (w/v) Trypsin EDTA at 37° C. for 2-5 mins. Detached cells were suspended in Ham's F-12K (Kaighn's) (containing 10% FBS) and a 50 μL cell suspension was seeded into each well of a 384-well assay plate at a density of 10,000 cells/well. Cells were allowed to settle overnight at 37° C., 5% CO2. […] The compounds and reference compound ACTH were diluted in 4 folds starting from 50 uM. Then, 500 nL of compounds were transferred to the compound plate by the Echo machine. 30 uL assay buffer was added into the compounds plate and then shaken for 20-40 minutes. The plates were then placed on the FLIPR Tetra High-Throughput Cellular Screening System (FLIPR®, Molecular Devices) and 15 μL of the compound was added to each well, then calcium flux signal was measured.

For data set [6], the target named is T4, human recombinant MC1R (Homo sapiens, UniProt Q01726).
T4 construct: host or cells: CHO-K1
T4 sequence (Q01726 whole entry): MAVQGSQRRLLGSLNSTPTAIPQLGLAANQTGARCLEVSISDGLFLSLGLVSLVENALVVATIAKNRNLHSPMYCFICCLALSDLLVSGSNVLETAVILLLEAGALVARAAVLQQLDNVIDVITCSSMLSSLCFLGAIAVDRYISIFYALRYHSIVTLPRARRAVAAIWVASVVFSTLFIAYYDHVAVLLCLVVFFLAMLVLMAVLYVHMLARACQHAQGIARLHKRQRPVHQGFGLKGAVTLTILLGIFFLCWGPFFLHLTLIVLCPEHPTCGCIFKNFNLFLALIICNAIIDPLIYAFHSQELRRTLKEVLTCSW
As to the kind of experiment: cyclic AMP (cAMP) functional assay, MC1R stable cell line (CHO-K1).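 As to all read-outs here: cells with test compound for 60 min at room temperature in buffer containing IBMX, then cAMP quantified by Eu-cAMP tracer and ULight anti-cAMP detection.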 It is filed as cell-based. To be noted: for IC50: cAMP functional assay.
Method: The cyclic AMP (cAMP) functional assay was performed on a human recombinant MC1R stable cell line (CHO-K1, GenScript). The cells were cultured at 37° C. and 5% CO2 with culture medium (90% Ham's F-12K (Kaighn's)+10% FBS+400 μg/mL G418). […] Then, 100 nL of compounds were transferred to the assay plate by the Echo machine. Cells were washed with PBS and then detached by incubation with 0.05% (w/v) Trypsin EDTA at 37° C. for 2 to 5 mins. Cells were collected with stimulation buffer (1×HBSS with 5 mM HEPES+0.2 mM IBMX+0.1% BSA) and 10 ul of cells (the density of 2,500 cells/well) solution was transferred to assay plate, centrifuged at 600 rpm for 3 min and then incubated with compounds at room temperature for 60 min. After that, 5 μL 4×Eu-cAMP tracer solution and 5 μL 4×ULight™-anti-cAMP solution was added into the cells, centrifuged at 600 rpm for 3 min and incubated for 60 min. The cAMP signal was detected with Envision® Multimode Plate Reader (PerkinElmer).

The nature of data set [7]: In vivo topical administration tissue distribution study, minipig. The settings on record: topical 5 mg/mL BID. The method, then: Animals were acclimated to the study environment for a minimum of 1 week. […] Examinations included, but were not limited to, the skin and external ears, eyes, and abdomen, neurological behavior, and general body condition.
Treatment was administered twice daily (BID) with approximately 6-8 hours between each BID dose, with tissue collection one hour after the last dose. Tissues and blood collected include plasma, aqueous humor, iris/ciliary body, vitreous humor, eye cup containing the retinal pigment epithelium, choroid, sclera, cornea, retina, optic nerve, and brain.
Blood (3 mL) was collected IV or ICAR for terminal collections and placed into K2EDTA tubes for plasma acquisition. […] Blood samples were stored on wet ice for up to 30 minutes prior to plasma processing.
Following euthanasia, eyes were enucleated and rinsed twice with fresh ice-cold PBS. Aqueous humor was removed via a 27 or 30 G syringe, weighed in polypropylene screw cap tubes, and snap frozen by immersing in liquid nitrogen. Eyes were dissected while frozen. All tissues were placed into individual vials, weighed, and snap frozen. The brain was collected and weighed. The hypothalamus, hippocampus and remaining brain was then dissected and weighed. 100-200 mg of each section was placed in pre-weighed polypropylene tubes, reweighed, and snap frozen. The remaining tissue was discarded. All tissues were stored frozen at −80° C. on dry ice.
The observed distribution pattern was consistent with that observed in the rat study. […] As also shown in FIG. 14, all three peptides were detected in the CNS of the animals, with no behavioral or metabolic changes noted in these animals despite the significant exposure. The foregoing results therefor confirm that the peptides disclosed herein can be delivered topically for retinal indications.

Data set [8] in a line: in vivo. The settings on record: rabbit, topical or ocular, 3 mg/ml solution, 35 L per eye, Concentrations (ng/mL) in Rabbit Aqueous Humor.
From the text: as §1, §2, §3, §4, §5, §6

For `CCCC[C@H](NC(C)=O)C(=O)N[C@H]1CCCCn2cc(nn2)C[C@@H](C(N)=O)NC(=O)[C@H](Cc2c[nH]c3ccccc23)NC(=O)[C@H](CCCNC(=N)N)NC(=O)[C@@H](Cc2ccccc2)NC(=O)[C@H](Cc2cnc[nH]2)NC1=O` [KR-009, Ac-Nle-[Lys(N3)-His-DPhe-Arg-Trp-Pra]-NH2] (Ac-[Nle][Lys(N3)]H[dF]RW[Pra]-NH2; triazole 2-7), the “Topical Ocular Permeability (nM ± SEM)” value in data set [1] was determined as 1.43 ± 1.01 nM. Further, the solubility in data set [2] was > 5000 µg/mL. For the same molecule, the concentration giving a half-maximal response (EC50) in data set [3] amounted to 45.7 nM; in data set [4], 140 nM. Further, in data set [4] (calcium flux functional assay), the half-maximal inhibitory concentration (IC50) was determined as 140 nM.

As for `N=C(N)NCCC[C@@H]1NC(=O)[C@H](Cc2ccccc2)NC(=O)[C@H](Cc2c[nH]cn2)NC(=O)[C@H](CCC(=O)O)NC(=O)CSC[C@@H](C(N)=O)NC(=O)[C@H](Cc2c[nH]c3ccccc23)NC1=O` [KR-011, Cyclo(-Ac-Glu-His-Phe-Arg-Trp-Cys)-NH2] ({CH2CO}-EHFRWC-NH2; thioether N-6 (inferred)), the “MC5R IC50” value in data set [4] (calcium flux functional assay) was “Not fit”. Besides, the IC50 in data set [5] is > 50000 nM.

Turning to `CSCC[C@H](NC(=O)[C@H](CO)NC(=O)[C@H](Cc1ccc(O)cc1)NC(=O)[C@H](CO)NC(C)=O)C(=O)N[C@@H](CCC(=O)O)C(=O)N[C@@H](Cc1c[nH]cn1)C(=O)N(C)[C@@H](Cc1ccccc1)C(=O)N[C@@H](CCCNC(=N)N)C(=O)N[C@@H](Cc1c[nH]c2ccccc12)C(=O)NCC(=O)N[C@@H](CCCCN)C(=O)N1CCC[C@H]1C(=O)N[C@H](C(N)=O)C(C)C` [KR-022, Ac-Ser-Tyr-Ser-Met-Glu-His-(NMe-Phe)-Arg-Trp-Gly-Lys-Pro-Val-NH2], the IC50 in data set [6] was > 200 nM; in data set [5] it was > 50000 nM.

As to `CCCC[C@H](NC(C)=O)C(=O)N1CCC(=O)NCCN(CC(=O)N[C@@H](Cc2c[nH]c3ccccc23)C(N)=O)C(=O)[C@H](CCCNC(=N)N)NC(=O)[C@@H](Cc2ccccc2)NC(=O)[C@H](Cc2c[nH]cn2)NC(=O)C1` [KR-029, Ac-Nle-cyc(NGlu-His-DPhe-Arg-NDab)-Trp-NH2], the IC50 in data set [6] was > 50 nM; in data set [3] it was > 1000 nM; in data set [4] (calcium flux functional assay), > 10000 nM; in data set [5] it was > 50000 nM.

Turning to `CCCC[C@H](NC(C)=O)C(=O)N[C@H]1CCCCn2cc(nn2)C[C@@H](C(N)=O)NC(=O)[C@H](Cc2c[nH]c3ccccc23)NC(=O)[C@H](CCCNC(=N)N)NC(=O)[C@@H](Cc2ccccc2)N(C)C(=O)[C@H](Cc2c[nH]cn2)NC1=O` [KR-044, Ac-Nle-[Lys(N3)-His-(NMe-Dphe)-Arg-Trp-Pra]-NH2] (Ac-[Nle][Lys(N3)]H[dNMeF]RW[Pra]-NH2; triazole 2-7), the figures for the IC50 in data set [6] and in data set [5] were > 50 nM and > 50000 nM, respectively.

Regarding `CCCC[C@H](NC(C)=O)C(=O)N[C@H]1CCCCn2cc(nn2)C[C@@H](C(N)=O)NC(=O)[C@H](Cc2c[nH]c3ccccc23)NC(=O)[C@H](CCCNC(=N)N)N(C)C(=O)[C@@H](Cc2ccccc2)NC(=O)[C@H](Cc2c[nH]cn2)NC1=O` [KR-045, Ac-Nle-[Lys(N3)-His-DPhe-NMeArg-Trp-Pra]-NH2] (Ac-[Nle][Lys(N3)]H[dF][NMeR]W[Pra]-NH2; triazole 2-7), in data set [5], the half-maximal inhibitory concentration (IC50) was > 50000 nM.

Turning to `CCCC[C@H](NC(C)=O)C(=O)N[C@H]1CCCCn2cc(nn2)C[C@@H](C(N)=O)NC(=O)[C@H](Cc2c[nH]c3ccccc23)NC(=O)[C@H](CCCNC(=N)N)NC(=O)[C@@H](Cc2ccc(C(F)(F)F)cc2)NC(=O)[C@H](Cc2c[nH]cn2)NC1=O` [KR-048, Ac-Nle-[Lys(N3)-His-Dphe(4-CF3)-Arg-Trp-Pra]-NH2] (Ac-[Nle][Lys(N3)]H[dPhe(4-CF3)]RW[Pra]-NH2; triazole 2-7), the half-inhibitory concentration (IC50) in data set [5] was > 50000 nM.

Take `CCCC[C@H](NC(C)=O)C(=O)N[C@H]1CCCCn2cc(nn2)C[C@@H](C(N)=O)NC(=O)[C@H](Cc2c[nH]c3ccccc23)NC(=O)[C@H](CCCNC(=N)N)NC(=O)[C@@H](Cc2ccc(F)cc2)NC(=O)[C@H](Cc2c[nH]cn2)NC1=O` [KR-049, Ac-Nle-[Lys(N3)-His-Dphe(4-F)-Arg-Trp-Pra]-NH2] (Ac-[Nle][Lys(N3)]H[dPhe(4-F)]RW[Pra]-NH2; triazole 2-7): the “Topical Ocular Permeability (nM ± SEM)” value in data set [1] came to 23.9 ± 10.8 nM. In data set [2], this molecule yielded a solubility of 9950 µg/mL (≈ 9.33 mM). In data set [7] (compared with K173 and K174), the melanin binding result was “enhanced melanin binding”. Besides, in data set [7] (compared with K173 and K174), the “scleral and retinal exposure” value was “decreased scleral and retinal exposure”. Besides, in data set [7] (similar to rabbit study), the corneal permeability entry is “enhanced corneal permeability”. The EC50 in data set [6] was found to be 0.019 nM; in data set [3] it was 16.1 nM; in data set [4], 25.2 nM. In addition, the figures for the IC50 in data set [6] and in data set [4] (calcium flux functional assay) were 0.019 nM and 25.2 nM, respectively.

`CCCC[C@H](NC(C)=O)C(=O)N[C@H]1CCCCn2cc(nn2)C[C@@H](C(N)=O)NC(=O)[C@H](Cc2c[nH]c3ccccc23)NC(=O)[C@H](CCCNC(=N)N)N(C)C(=O)[C@@H](Cc2ccccc2)NC(=O)[C@H](Cc2c[nH]cn2)N(C)C1=O` [KR-052, Ac-Nle-[Lys(N3)-NMeHis-DPhe-NMeArg-Trp-Pra]-NH2] (Ac-[Nle][Lys(N3)][NMeH][dF][NMeR]W[Pra]-NH2; triazole 2-7): the IC50 was 2.68 nM in data set [6], 122 nM in data set [3], 195 nM in data set [4] (calcium flux functional assay) and > 50000 nM in data set [5].

With `CCCC[C@H](NC(C)=O)C(=O)N[C@H]1CCCCn2cc(nn2)C[C@@H](C(=O)N[C@@H](CCCCN)C(N)=O)NC(=O)[C@H](Cc2c[nH]c3ccccc23)NC(=O)[C@H](CCCNC(=N)N)NC(=O)[C@@H](Cc2ccc(OC)cc2)NC(=O)[C@H](Cc2c[nH]cn2)NC1=O` [KR-058, Ac-Nle-[Lys(N3)-His-DTyr(Me)-Arg-Trp-Pra]-Lys-NH2] (Ac-[Nle][Lys(N3)]H[dY](Me)RW[Pra]K-NH2; triazole 2-7), the IC50 in data set [6] is 2.68 nM; in data set [3], 122 nM; in data set [4] (calcium flux functional assay), 195 nM; in data set [5], > 50000 nM.

Take `CCCC[C@H](NC(=O)c1cc(O)cc(O)c1)C(=O)N[C@H]1CCCCn2cc(nn2)C[C@@H](C(=O)N[C@@H](CCCC(N)=O)C(N)=O)NC(=O)[C@H](Cc2c[nH]c3ccccc23)NC(=O)[C@H](CCCNC(=N)N)NC(=O)[C@@H](Cc2ccc(F)cc2)NC(=O)[C@H](Cc2c[nH]cn2)NC1=O` [KR-071, HyBA-Nle-[Lys(N3)-His-Dphe(4-F)-Arg-Trp-Pra]-Hgln-NH2] ({Benzoyl(3,5-(OH)2)}-[Nle][Lys(N3)]H[dPhe(4-F)]RW[Pra][Aad](NH2)-NH2; triazole 2-7): the “Topical Ocular Permeability (nM ± SEM)” value in data set [1] is on record as 2.5 ± 0.2 nM. Besides, the solubility in data set [2] (Table 8, read-out: Solubility) was determined as 6100 µg/mL (≈ 4.68 mM). Further, the EC50 in data set [6] was 0.0023 nM; in data set [3], 103 nM; in data set [4] it was 73.9 nM. Besides, the IC50 in data set [6] is 0.0023 nM; in data set [4] (calcium flux functional assay) it was 73.9 nM. The same molecule gave a level at 0.5 h in data set [8] of 2.84 ng/mL.

Turning to `CCCC[C@H](NC(=O)c1cc(O)cc(O)c1)C(=O)N[C@H]1CCCCn2cc(nn2)C[C@@H](C(N)=O)NC(=O)[C@H](Cc2c[nH]c3ccccc23)NC(=O)[C@H](CCCNC(=N)N)NC(=O)[C@@H](Cc2ccccc2)NC(=O)[C@H](Cc2c[nH]cn2)NC1=O` [KR-073, HyBA-Nle-[Lys(N3)-His-DPhe-Arg-Trp-Pra]-NH2] ({Benzoyl(3,5-(OH)2)}-[Nle][Lys(N3)]H[dF]RW[Pra]-NH2; triazole 2-7), the “Topical Ocular Permeability (nM ± SEM)” value in data set [1] is on record as 12.3 ± 3.8 nM. The solubility in data set [2] (Table 8, read-out: Solubility) worked out at 7690 µg/mL (≈ 6.73 mM). Also, the concentration giving a half-maximal response (EC50) in data set [6] worked out at 0.0041 nM; in data set [3], 13.9 nM; in data set [4] it was 134 nM. The IC50 in data set [6] was 0.0041 nM; in data set [4] (calcium flux functional assay) it was 134 nM.
